Results: ChEMBL document CHEMBL2163300, “Mitogen-activated protein kinase-activated protein kinase 2 (MAPKAP-K2) as an antiinflammatory target: discovery and in vivo activity of selective pyrazolo[1,5-a]pyrimidine inhibitors using a focused library and structure-based optimization approach” (J Med Chem, 2012)
Calls of active or inactive are those of the source. The rule behind the calls is not given here.

Tests used:
[1] = target: T1, MAP kinase-activated protein kinase 2 (Homo sapiens, UniProt P49137); experiment: Inhibition of MAPKAP-K2 using KKLNRTLSVA as substrate and [33P]-gamma-ATP after 30 mins by liquid scintillation counter
T1 sequence (P49137 whole entry): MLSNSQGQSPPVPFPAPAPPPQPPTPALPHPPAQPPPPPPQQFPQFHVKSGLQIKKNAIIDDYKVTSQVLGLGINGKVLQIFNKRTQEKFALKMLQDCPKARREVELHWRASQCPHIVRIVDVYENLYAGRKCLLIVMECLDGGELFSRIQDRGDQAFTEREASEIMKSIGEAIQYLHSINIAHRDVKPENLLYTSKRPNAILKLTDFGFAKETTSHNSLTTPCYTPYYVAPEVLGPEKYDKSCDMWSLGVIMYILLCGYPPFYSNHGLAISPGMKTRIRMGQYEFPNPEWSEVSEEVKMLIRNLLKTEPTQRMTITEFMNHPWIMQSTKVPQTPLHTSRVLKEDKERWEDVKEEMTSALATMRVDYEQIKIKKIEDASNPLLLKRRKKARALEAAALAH

[2] = target: Serine/threonine-protein kinase Chk2 (Homo sapiens) (UniProt O96017); experiment: Inhibition of human CHK2 at 30 uM by Cyclex assay
Sequence of Serine/threonine-protein kinase Chk2 (Homo sapiens) (O96017 whole entry): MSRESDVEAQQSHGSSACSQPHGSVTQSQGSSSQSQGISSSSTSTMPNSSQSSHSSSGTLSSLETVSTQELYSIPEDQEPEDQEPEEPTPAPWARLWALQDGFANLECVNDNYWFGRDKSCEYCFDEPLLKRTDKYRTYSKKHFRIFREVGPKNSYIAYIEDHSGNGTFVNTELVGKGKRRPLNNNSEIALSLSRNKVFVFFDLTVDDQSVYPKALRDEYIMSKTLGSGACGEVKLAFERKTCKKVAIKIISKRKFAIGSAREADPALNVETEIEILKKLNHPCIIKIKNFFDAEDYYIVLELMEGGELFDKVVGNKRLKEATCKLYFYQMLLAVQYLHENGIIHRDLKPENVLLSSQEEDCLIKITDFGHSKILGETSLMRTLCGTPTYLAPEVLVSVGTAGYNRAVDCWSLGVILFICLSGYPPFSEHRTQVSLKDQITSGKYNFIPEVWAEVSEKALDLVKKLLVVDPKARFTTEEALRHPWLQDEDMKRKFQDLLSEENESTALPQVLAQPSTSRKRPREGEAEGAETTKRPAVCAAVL

[3] = target: Cyclin-dependent kinase 2 (Homo sapiens, UniProt P24941)
Description: Inhibition of CDK2 after 60 mins using [33P]-gamma-ATP by liquid scintillation counter

[4] = target: T1, MAP kinase-activated protein kinase 2; experiment: Binding affinity to recombinant MAPKAP-K2 using KKKALSRQLSVAA as substrate after 4 mins by […]
Mus musculus = experiment: Antiinflammatory activity in po dosed C57BL/6 mouse assessed as decrease in LPS-induced serum TNFalpha level administered 30 mins prior to LPS challenge measured 60 mins post LPS challenge by ELISA; format: functional, organism-based
[5] = target: T1, MAP kinase-activated protein kinase 2; experiment: Inhibition of human MAPKAP-K2 in THP1 cells assessed as inhibition of LPS-induced TNFalpha production incubated 1 hr prior to LPS challenge measured 18 hrs post LPS challenge by HTRF assay; format: cell-based, THP-1
THP-1 = experiment: Cytotoxicity against human THP1 cells assessed as cell viability by MTS assay; format: cell-based
[6] = Half life in mouse at 1 mg/kg, iv; format: ADME, organism-based; set-up: dose 1 mg/kg, route intravenous; conditions: in vivo
[7] = AUC (0 to 24 hrs) in mouse at 1 mg/kg, po; format: ADME, organism-based; set-up: time < 24 hr, dose 1 mg/kg, route oral; conditions: plasma
[8] = Total clearance in mouse at 1 mg/kg, iv; format: ADME, organism-based; set-up: dose 1 mg/kg, route intravenous; conditions: in vivo
[9] = Oral bioavailability in mouse at 1 mg/kg; format: ADME, organism-based; conditions: in vivo
[10] = target: T1, MAP kinase-activated protein kinase 2; experiment: Inhibition of MAPKAP-K2

SMILES	IC50 [1]	IC50 [3]	other results
CC(C)CCNc1cc(N[C@H]2CC[C@H](N)CC2)nc2ccnn12	12 µM		
CC(=O)N[C@H]1CC[C@H](Nc2cc(Nc3ccc(F)c(Cl)c3)n3nccc3n2)CC1	> 100 µM		
CCc1c(N[C@H]2CC[C@H](N)CC2)nc2ccnn2c1Nc1ccccc1Cl	1.5 µM	> 300 µM	
Cc1ccc(-c2ccc3c(ccc4sc5c(c43)NC[C@@H](C)NC5=O)n2)cn1			IC50 [4]: 0.005 µM
Fc1ccc(Nc2cc(NC3CCCCC3)nc3ccnn23)cc1Cl	> 100 µM		
N[C@H]1CC[C@H](Nc2cc(Nc3ccccc3Cl)n3nccc3n2)CC1	0.2 µM	0.39 µM	inhibition [2]: inactive
Cc1ccc(-n2nc(C(C)(C)C)cc2NC(=O)Nc2ccc(OCCN3CCOCC3)c3ccccc23)cc1			Activity (Mus musculus): Dose-dependent effect
CCOc1ccc(Nc2c(C)c(NCCO)nc3ccnn23)cc1	83 µM		
CCN[C@H]1CC[C@H](Nc2cc(Nc3ccc(F)c(Cl)c3)n3nccc3n2)CC1	2 µM		
CCN(CC)[C@H]1CC[C@H](Nc2cc(Nc3ccc(F)c(Cl)c3)n3nccc3n2)CC1	> 100 µM		
CCOc1ccc(Nc2c(C)c(NCCCN)nc3ccnn23)cc1	8.7 µM		
N[C@H]1CC[C@H](Nc2cc(Nc3ccc(F)c(Cl)c3)n3ncc(Cl)c3n2)CC1	8.1 µM	0.003 µM	
Cc1cc2nc(N[C@H]3CC[C@H](N)CC3)cc(Nc3ccc(F)c(Cl)c3)n2n1	> 300 µM		
CCOc1ccc(Nc2c(C)c(O[C@H]3CC[C@H](N)CC3)nc3ccnn23)cc1	0.57 µM		
N[C@H]1CC[C@H](Nc2cc(NCC3CCCCC3)n3nccc3n2)CC1	11 µM		
NC1CCCC(Nc2cc(Nc3ccc(F)c(Cl)c3)n3nccc3n2)C1 (centres undefined)	> 100 µM		
CC(C)(C)c1cc2nc(N[C@H]3CC[C@H](N)CC3)cc(Nc3ccc(F)c(Cl)c3)n2n1	> 300 µM		
CN(c1ccc(F)c(Cl)c1)c1cc(N[C@H]2CC[C@H](N)CC2)nc2ccnn12	> 300 µM		
N#Cc1c(N)nc2c(c1N)Cc1cc(O)c(O)cc1O2			IC50 [10]: 0.13 µM
CCOc1ccc(Nc2c(C)c(NCCN)nc3ccnn23)cc1	2.5 µM		
CCOc1ccc(Nc2c(C)c(NCCCCN)nc3ccnn23)cc1	4.1 µM		
N[C@H]1CC[C@H](Nc2cc(NCc3ccccc3)n3nccc3n2)CC1	7 µM		
N[C@H]1CC[C@H](Nc2cc(Nc3ccc(F)c(Cl)c3)n3ncc(Br)c3n2)CC1	9.2 µM	0.0034 µM	
Nc1ccc(Nc2cc(Nc3ccc(F)c(Cl)c3)n3nccc3n2)cc1	> 100 µM		
N[C@H]1CC[C@H](Nc2nc3ccnn3c(Nc3ccc(F)c(Cl)c3)c2-c2ccccc2)CC1	1.6 µM	6 µM	
N#Cc1cnn2c(Nc3ccc(F)c(Cl)c3)cc(N[C@H]3CC[C@H](N)CC3)nc12	3.1 µM	0.004 µM	
Fc1ccc(Nc2cc(NCC3CCNCC3)nc3ccnn23)cc1Cl	> 100 µM		

Second part, led by results:

IC50 [1]	IC50 [3]	SMILES	other results
0.36 µM		CCOc1ccc(Nc2c(C)c(N[C@H]3CC[C@H](N)CC3)nc3ccnn23)cc1	inhibition [2]: inactive
3 µM		Cc1c(N[C@H]2CC[C@H](N)CC2)nc2ccnn2c1Nc1cccc(OCc2ccccc2)c1	
0.4 µM	0.7 µM	Fc1ccc(Nc2cc(NC3CCCNC3)nc3ccnn23)cc1Cl (racemic)	
0.51 µM	33 µM	Cc1c(NC2CCCNC2)nc2ccnn2c1Nc1ccc(F)c(Cl)c1 (racemic)	
25 µM		Fc1ccc(Nc2cc(NC3CCNCC3)nc3ccnn23)cc1Cl	
1.4 µM		CCOc1cccc(Nc2c(C)c(N[C@H]3CC[C@H](N)CC3)nc3ccnn23)c1	
0.057 µM	21 µM	CC(=O)c1ccc(-c2ccc(Nc3c(C)c(N[C@H]4CCCNC4)nc4ccnn34)cc2)s1	
0.6 µM	2.1 µM	CCCc1c(N[C@H]2CC[C@H](N)CC2)nc2ccnn2c1Nc1ccc(F)c(Cl)c1	
89 µM		CCOc1ccc(Nc2c(C)c(N[C@H]3CC[C@H](O)CC3)nc3ccnn23)cc1	
0.054 µM	25 µM	Cc1nc2ccc(Nc3c(C)c(N[C@H]4CCCNC4)nc4ccnn34)cc2s1	IC50 [5]: 8.4 µM; IC50 (THP-1): 54 µM; half-life [6]: 2.6 h; AUC(0-t) at 24 h [7]: 0.579 µM·h; clearance [8]: 58.3 mL/min/kg; bioavailability [9]: 79%
1.9 µM		CCOC(=O)c1cccc(Nc2c(C)c(N[C@H]3CC[C@H](N)CC3)nc3ccnn23)c1	
0.7 µM		Cc1c(N[C@H]2CC[C@H](N)CC2)nc2ccnn2c1Nc1ccc(OCc2ccccc2)cc1	
0.076 µM	27 µM	Cc1c(N[C@H]2CCCNC2)nc2ccnn2c1Nc1ccc2c(cnn2C)c1	
0.13 µM	22 µM	COCCOc1ccc(Nc2c(C)c(N[C@H]3CCCNC3)nc3ccnn23)cc1	IC50 [5]: 7.6 µM; IC50 (THP-1): > 100 µM; half-life [6]: 1 h; AUC(0-t) at 24 h [7]: 0.316 µM·h; clearance [8]: 58.3 mL/min/kg; bioavailability [9]: 80%
1.7 µM	6.4 µM	Cc1c(N[C@H]2CC[C@H](N)CC2)nc2ccnn2c1Nc1ccccc1Cl	
0.4 µM	11 µM	Cc1c(N[C@H]2CC[C@H](N)CC2)nc2ccnn2c1Nc1ccc(F)c(Cl)c1	
0.14 µM	49 µM	Cc1c(N[C@H]2CCCNC2)nc2ccnn2c1Nc1ccc(C(=O)NC2CCCC2)cc1	
26 µM		CCOc1ccc(Nc2c(C)c(N(C)C3CCCNC3)nc3ccnn23)cc1 (racemic)	
0.7 µM	24 µM	CCc1c(NC2CCCNC2)nc2ccnn2c1Nc1ccc(F)c(Cl)c1 (racemic)	
0.7 µM		CCOC(=O)c1ccc(Nc2c(C)c(N[C@H]3CC[C@H](N)CC3)nc3ccnn23)cc1	
0.4 µM	3.6 µM	CCc1c(N[C@H]2CC[C@H](N)CC2)nc2ccnn2c1Nc1ccc(F)c(Cl)c1	inhibition [2]: inactive
> 100 µM		CCOc1ccc(Nc2c(C)c(N[C@H]3CCCNC3=O)nc3ccnn23)cc1	
0.16 µM	62 µM	Cc1c(N[C@H]2CCCNC2)nc2ccnn2c1Nc1ccc(OCCN2CCOCC2)cc1	
